Measurements reported in patent US8871933B2, “Purified pyrroloquinolinyl-pyrrolidine-2,5-dione compositions and methods for preparing and using same” (ArQule, Inc., priority 2009, dated 2014).
pIC50: −log10 of the molar value. ≈ marks a conversion by molar mass, not a printed value.

Legend:
[1] = test system: MDA-MB-231 cells; assay: Colony formation / surviving fraction assay; assay type: cell-based; settings: Homo sapiens, two days incubation, colonies counted two weeks later, read-out: IC50 (surviving fraction equaled 50)
Description: MDA-MB-231 cells (ATCC #HTB-26), grown in DMEM plus 15% heat inactivated fetal bovine serum plus 10 mM HEPES pH 7.5, were plated in 60 mm^2 plates (2×10^5 cells per plate). After two days candidate compounds in DMSO at various concentrations were diluted in media and added to individual plates such that the final DMSO concentration in the cell culture media was 0.1%. After two days incubation the culture was trypsinized, cells were washed with media, counted using a hemocytometer and 500 cells, including cell bodies, were plated in 100 mm^2 plates in media. Two weeks later the media was removed and the cell colonies were fixed with methanol for 10 minutes, stained with 1% crystal violet for 10 minutes, washed with water and air dried. Cell colonies were visually counted when there were greater then 50 cells present per colony. Plating efficiency was defined as the average number of colonies formed divided by 500. The surviving fraction was defined as the plating efficiency of a candidate compound divided by the plating efficiency of DMSO multiplied by 100. For candidate compound titrations, the IC50 value was determined by fitting the equation y=Ae^Bx to the data points and extrapolating the concentration where surviving fraction equaled 50. […]

[2] = target: c-Met (Homo sapiens, UniProt P08581); assay: c-Met phosphorylation in MDA-MB-231 cells, basal and HGF-induced (Western blot); assay type: cell-based; parameters: Whole cell extracts were prepared in lysis buffer; endogenous in cells; host or cells: MDA-MB-231; settings: 20 μM
Description: MDA-MB-231 cells were serum-deprived overnight (16 hours) in the absence or in the presence of the indicated concentrations of the separate enantiomers (+)-trans-3-(5,6-dihydro-4H-pyrrolo[3,2,1-ij]quinolin-1-yl)-4-(1H-indol-3-yl)pyrrolidine-2,5-dione and (−)-trans-3-(5,6-dihydro-4H-pyrrolo[3,2,1-ij]quinolin-1-yl)-4-(1H-indol-3-yl)pyrrolidine-2,5-dione. Cells were treated with 100 ng/ml recombinant human Hepatocyte Growth Factor/Scatter Factor (HGF/SF) (R&D Systems #294-HG) for 10 minutes. Whole cell extracts were prepared in lysis buffer (20 mM Tris-HCl pH 7.5, 150 mM NaCl, 1 mM Na2EDTA, 1 mM EGTA, 1% Triton X-100, 2.5 mM sodium pyrophosphate, 1 mM beta-glycerophosphate, 1 mM Na3VO4, 1 μg/ml leupeptin, 1 mM phenylmethylsulfonyl fluoride) and sonicated. Protein concentration was measured by Bradford assay using the BioRad reagent (BioRad, Hercules, Calif.), according to the manufacturer's directions. Samples ([…] of protein) were resolved by 8% SDS-PAGE under reducing conditions and transferred onto a PVDF membrane (BioRad). […] Proteins were detected by incubation overnight at 4° C. in TBS-T with 5% milk and either a polyclonal antibody against phosphorylated c-Met (#3121) or a monoclonal antibody against β-actin (A-5441) (Sigma), which was used as a control for total protein loading. […]

[3] = test system: MDA-MB-231 cells or MIA PaCa-2 (PACA-2) cells; assay: Cell survival in six-well plates, Wright-Giemsa stain; assay type: cell-based; settings: Homo sapiens; 0.1-2 μM, 10-15 days; MDA-MB-231 or Paca-2 cells, cell line of the IC50 not stated
Description: Exponentially growing MDA-MB-231 cells or MIA PaCa-2 (also known as PACA-2) cells were seeded at 1,000 cells per well in six-well plates and allowed to attach for 24 hours. MDA-MB-231 and MIA PaCa-2 cells were cultured in DMEM supplemented with 10% (v/v) fetal bovine serum (FBS) and 5 ml Penicillin/Streptomycin at 37° C. in 5% CO2. MDA-MB-231 and MIA PaCa-2 were established in estrogen receptor-negative human breast cancer and pancreatic carcinoma cell lines, respectively. (±)-cis-3-(5,6-dihydro-4H-pyrrolo[3,2,1-ij]quinolin-1-yl)-4-(1H-indol-3-yl)pyrrolidine-2,5-dione or (±)-trans-3-(5,6-dihydro-4H-pyrrolo[3,2,1-ij]quinolin-1-yl)-4-(1H-indol-3-yl)pyrrolidine-2,5-dione were each dissolved at a concentration of 10 mM in DMSO, and separately added to cells at a concentration of 0.1, 0.25, 0.5, 1 or 2 μM. Control plates received DMSO alone, at the same percentage of total culture volume as that administered in conjunction with the highest concentration of drug. Cell cultures were observed daily for 10-15 days, then fixed and stained with modified Wright-Giemsa stain (Sigma). Treatment with (±)-cis-3-(5,6-dihydro-4H-pyrrolo[3,2,1-ij]quinolin-1-yl)-4-(1H-indol-3-yl)pyrrolidine-2,5-dione or (±)-trans-3-(5,6-dihydro-4H-pyrrolo[3,2,1-ij]quinolin-1-yl)-4-(1H-indol-3-yl)pyrrolidine-2,5-dione results in cell death of MDA-MB-231 cells or Paca-2 cells. See, e.g., FIG. 2.

[4] = target: Recombinant Protein Kinase C; assay: Protein Kinase C kinase assay (Histone H1, 32P-ATP, autoradiography); assay type: biochemical; parameters: dose or concentration left out as unconfirmed; settings: for 15 minutes at room temperature
Description: Recombinant Protein Kinase C (Calbiochem) (100 ng) was incubated with (±)-cis-3-(5,6-dihydro-4H-pyrrolo[3,2,1-ij]quinolin-1-yl)-4-(1H-indol-3-yl)pyrrolidine-2,5-dione or (±)-trans-3-(5,6-dihydro-4H-pyrrolo[3,2,1-ij]quinolin-1-yl)-4-(1H-indol-3-yl)pyrrolidine-2,5-dione at […] for 15 minutes at room temperature. Subsequently, a radioactive labeling mix in kinase buffer (20 mM Tris-HCl pH 7.5, 10 mM MgCl2) containing 20 μM ATP, 0.2 μCi/μl γ^32P-ATP, 0.2 μg/μl Histone H1 (Upstate Biotechnology/Millipore, Bedford, Mass.) was added to each sample. The kinase reaction was carried out for 5 minutes at room temperature. Reaction products were analyzed by 12% SDS-PAGE and autoradiography.

[5] = physchem; assay type: physicochemical
Description: Form 1 and Form 2 have different equilibrium solubilities: Form 2=0.61 mg/mL and Form 1=0.51 mg/mL.

[6] = Storage stability of Form 2; assay type: physicochemical; settings: 40° C./75% RH for up to six months and 25° C./60% RH for up to 12 months; multiple batches
[7] = Interconversion experiments (thermodynamic stability of polymorphs); assay type: physicochemical
Description: Form 1 is orthorhombic and contains four molecules of (−)-trans-3-(5,6-dihydro-4H-pyrrolo[3,2,1-ij]quinolin-1-yl)-4-(1H-indol-3-yl)pyrrolidine-2,5-dione per cell. Form 1 has a melting point of ˜218° C. recorded in DSC (See, FIG. 16).
The two polymorphs can be interconverted when proper conditions are used to control the crystallization process. Form 2 can be obtained by dissolving Form 1 in methanol, seeding with Form 2 and evaporating the mixture to dryness by rotary evaporation. The successful conversion was determined to be Form 2 by IR analysis and corroborated by XRPD analysis.

Sequence of c-Met (P08581 25-1390): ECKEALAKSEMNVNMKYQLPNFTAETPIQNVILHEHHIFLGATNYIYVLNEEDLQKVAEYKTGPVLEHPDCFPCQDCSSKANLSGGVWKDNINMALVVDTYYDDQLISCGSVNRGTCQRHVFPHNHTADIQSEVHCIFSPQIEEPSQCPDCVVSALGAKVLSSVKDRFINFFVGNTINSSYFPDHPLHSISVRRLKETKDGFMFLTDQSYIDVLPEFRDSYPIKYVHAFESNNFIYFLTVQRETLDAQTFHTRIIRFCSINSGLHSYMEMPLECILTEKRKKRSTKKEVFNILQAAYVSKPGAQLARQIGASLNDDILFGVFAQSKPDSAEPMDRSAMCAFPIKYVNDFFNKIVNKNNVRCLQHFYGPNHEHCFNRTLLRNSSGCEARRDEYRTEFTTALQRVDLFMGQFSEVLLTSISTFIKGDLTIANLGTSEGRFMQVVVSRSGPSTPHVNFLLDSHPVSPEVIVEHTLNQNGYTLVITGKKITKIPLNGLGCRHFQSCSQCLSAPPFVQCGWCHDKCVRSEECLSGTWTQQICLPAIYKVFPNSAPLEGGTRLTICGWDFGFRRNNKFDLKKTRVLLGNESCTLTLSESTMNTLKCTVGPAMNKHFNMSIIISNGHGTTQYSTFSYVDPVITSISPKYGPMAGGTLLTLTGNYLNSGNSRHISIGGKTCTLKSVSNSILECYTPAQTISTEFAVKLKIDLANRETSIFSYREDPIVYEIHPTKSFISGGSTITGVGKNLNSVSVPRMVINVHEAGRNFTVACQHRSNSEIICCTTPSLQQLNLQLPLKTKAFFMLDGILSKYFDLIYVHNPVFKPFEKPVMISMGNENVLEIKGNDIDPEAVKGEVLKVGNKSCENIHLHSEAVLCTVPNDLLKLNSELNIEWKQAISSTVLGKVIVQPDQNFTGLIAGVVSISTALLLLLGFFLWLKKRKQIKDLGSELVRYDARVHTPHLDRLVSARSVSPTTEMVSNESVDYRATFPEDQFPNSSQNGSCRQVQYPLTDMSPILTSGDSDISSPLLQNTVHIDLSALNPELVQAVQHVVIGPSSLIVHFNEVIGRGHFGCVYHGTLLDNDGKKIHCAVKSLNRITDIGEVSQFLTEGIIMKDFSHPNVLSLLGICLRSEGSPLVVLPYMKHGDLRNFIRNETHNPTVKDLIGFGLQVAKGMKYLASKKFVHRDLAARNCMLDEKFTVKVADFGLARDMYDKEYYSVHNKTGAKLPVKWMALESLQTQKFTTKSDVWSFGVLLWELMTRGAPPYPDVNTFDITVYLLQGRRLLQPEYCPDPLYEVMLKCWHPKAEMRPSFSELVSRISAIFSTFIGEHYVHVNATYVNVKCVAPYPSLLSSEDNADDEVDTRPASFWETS

Compound: O=C1NC(=O)[C@@H](c2cn3c4c(cccc24)CCC3)[C@@H]1c1c[nH]c2ccccc12 [(+)-trans-3-(5,6-dihydro-4H-pyrrolo[3,2,1-ij]quinolin-1-yl)-4-(1H-indol-3-yl)pyrrolidine-2,5-dione]
- pIC50 [1]: 5.39
- inhibitory effect on c-Met phosphorylation [2]: only a minimum inhibitory effect

Compound: O=C1NC(=O)[C@@H](c2cn3c4c(cccc24)CCC3)[C@H]1c1c[nH]c2ccccc12 (racemic) [(±)-cis-3-(5,6-dihydro-4H-pyrrolo[3,2,1-ij]quinolin-1-yl)-4-(1H-indol-3-yl)pyrrolidine-2,5-dione]
- pIC50 [3]: 6.30
- kinase activity in comparison to treatment with carrier alone [4]: did not reduce kinase activity

Compound: O=C1NC(=O)[C@@H](c2cn3c4c(cccc24)CCC3)[C@@H]1c1c[nH]c2ccccc12 [Form 2, (−)-trans-3-(5,6-dihydro-4H-pyrrolo[3,2,1-ij]quinolin-1-yl)-4-(1H-indol-3-yl)pyrrolidine-2,5-dione]
- solubility thermodynamic ([5]; thermodynamic from solid, equilibrium solubilities): 610 µg/mL (≈ 1650 µM)
- change in crystalline form or purity upon storage [6]: No discernable change in crystalline form or purity

Compound: O=C1NC(=O)[C@@H](c2cn3c4c(cccc24)CCC3)[C@@H]1c1c[nH]c2ccccc12 [Form 1, (−)-trans-3-(5,6-dihydro-4H-pyrrolo[3,2,1-ij]quinolin-1-yl)-4-(1H-indol-3-yl)pyrrolidine-2,5-dione]
- equilibrium solubilities [5]: 0.51 mg/mL
- thermodynamic stability [7]: more thermodynamically stable than Form 2

Compound: O=C1NC(=O)[C@@H](c2cn3c4c(cccc24)CCC3)[C@@H]1c1c[nH]c2ccccc12 (racemic) [(±)-trans-3-(5,6-dihydro-4H-pyrrolo[3,2,1-ij]quinolin-1-yl)-4-(1H-indol-3-yl)pyrrolidine-2,5-dione]
- pIC50 [3]: 6.30
- kinase activity in comparison to treatment with carrier alone [4]: did not reduce kinase activity
